Like-named read-outs stand apart in the source and are kept apart here.
What was measured:
[1] = system: MM1.S (multiple myeloma) cells; test: In vitro cell proliferation, MM1.S multiple myeloma cells (CellTiter-Glo, ATP); assay type: cell-based; details: read-out: Prolif MM1S ATP (EC50)
Description: BaF3, a murine interleukin-3 dependent pro-B cell line, parental cells, BaF3 PIM1 cells, BaF3 PIM2 cells, and MM1.S (multiple myeloma) cells were seeded at 2 k/well, 5 k/well, 5 k/well, and 10 k/well respectively, in a 384-well plate, at 45 μL/well. Test compound was added at 5 μL/well. BaF3 cells (parental and transfected) were incubated overnight, while MM1.S cells were incubated for 72 hours at 37° C., 5% CO2. […] IC50/EC50 values for the test compound were calculated.

BaF3 parental cells = test: In vitro cell proliferation, BaF3 parental line + IL3 (CellTiter-Glo); assay type: cell-based, murine; details: read-out: Prolif BaF3 + IL3 (IC50)
Description: BaF3 parental line was obtained from the DSMZ repository. BaF3 lines transfected with PIM 1 or PIM2 were generated. Mouse IL-3 was purchased from R&D Systems. G418 was purchased from Clontech. Media for BaF3 parental line contained RPMI, 10% FBS, 2 mM L-Glutamine, 2 ng/mL mIL-3. Media for BaF3 PIM1 & 2 lines contained RPMI, 10% FBS, 2 mM L-Glutamine, 250 μg/mL.
BaF3, a murine interleukin-3 dependent pro-B cell line, parental cells, BaF3 PIM1 cells, BaF3 PIM2 cells, and MM1.S (multiple myeloma) cells were seeded at 2 k/well, 5 k/well, 5 k/well, and 10 k/well respectively, in a 384-well plate, at 45 μL/well. Test compound was added at 5 μL/well. BaF3 cells (parental and transfected) were incubated overnight, while MM1.S cells were incubated for 72 hours at 37° C., 5% CO2. CELL TITER GLO® Reagent (Promega) was added at 50 μL/well, the plates were incubated for 30 minutes, and their luminescence read on an HT Analyst. IC50/EC50 values for the test compound were calculated.

PIM1 = PIM1 (Homo sapiens (Human), UniProt P11309); test: Pim kinase inhibition, PIM1 LC3K (Example 901); assay type: biochemical
Description: Determination of the Pim kinase activity of a Formula I compound is possible by a number of direct and indirect detection methods.

[2] = Mus musculus, BaF3, BaF3 parental cells with IL-3, incubated overnight

Sequence of PIM1 (P11309 whole entry): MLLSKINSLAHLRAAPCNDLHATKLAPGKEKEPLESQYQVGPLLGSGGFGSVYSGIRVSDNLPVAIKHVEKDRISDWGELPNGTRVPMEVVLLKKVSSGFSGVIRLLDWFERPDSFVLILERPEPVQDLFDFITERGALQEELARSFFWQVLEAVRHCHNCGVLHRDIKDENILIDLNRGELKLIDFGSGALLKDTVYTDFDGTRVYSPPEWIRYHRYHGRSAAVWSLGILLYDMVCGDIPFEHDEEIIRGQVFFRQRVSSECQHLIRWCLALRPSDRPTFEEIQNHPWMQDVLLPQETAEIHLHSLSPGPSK

SMILES	Ki (PIM1) [nM]	further results
CCOC1CCN(c2c(NC(=O)c3nc(-c4c(F)cccc4F)sc3N)cnn2C)CCC1N (centres unmarked) [Example 385, 5-amino-N-[5-(4-amino-5-ethoxy-azepan-1-yl)-1-methyl-pyrazol-4-yl]-2-(2,6-difluorophenyl)thiazole-4-carboxamide]	–	EC50 ([1]; 72 hours): 182 nM
CC(=O)O[C@H]1CCN(c2c(NC(=O)c3nc(-c4c(F)cccc4F)sc3N)cnn2C)CC[C@H]1N [Example 487, [(4S,5R)-5-amino-1-[4-[[5-amino-2-(2,6-difluorophenyl)thiazole-4-carbonyl]amino]-2-methyl-pyrazol-3-yl]azepan-4-yl]acetate]	–	IC50 (BaF3 parental cells; [2]): 20100 nM
Cn1ncc(NC(=O)c2nc(-c3c(F)cccc3F)sc2N)c1N1CCC(N)C(C(F)F)CC1 (single isomer, unassigned) [Example 511, 5-amino-N-[5-[4-amino-5-(difluoromethyl)azepan-1-yl]-1-methyl-pyrazol-4-yl]-2-(2,6-difluorophenyl)thiazole-4-carboxamide]	–	IC50 (BaF3 parental cells; [2]): 24300 nM
Cn1ncc(NC(=O)c2nc(-c3c(F)cccc3F)sc2N)c1N1CCC(O)CC(F)(F)C1 (single isomer, unassigned) [Example 371, 5-amino-N-[5-(3,3-difluoro-5-hydroxy-azepan-1-yl)-1-methyl-pyrazol-4-yl]-2-(2,6-difluorophenyl)thiazole-4-carboxamide]	–	EC50 ([1]; Homo sapiens, MM1.S, 72 h): 1300 nM
Cn1ncc(NC(=O)c2nc(-c3c(F)cccc3F)sc2N)c1N1CCC(N)C(O)CC1 (single isomer, unassigned) [Example 333, 5-amino-N-[5-(4-amino-5-hydroxy-azepan-1-yl)-1-methyl-pyrazol-4-yl]-2-(2,6-difluorophenyl)thiazole-4-carboxamide]	–	IC50 (BaF3 parental cells; BaF3 parental cells with IL-3, incubated overnight): > 25000 nM
Cn1ncc(NC(=O)c2nc(-c3c(F)cccc3F)sc2N)c1N1CCC2NCCOC2CC1 (single isomer, unassigned) [Example 397, N-[5-(3,4,4a,5,6,8,9,9a-octahydro-2H-[1,4]oxazino[2,3-d]azepin-7-yl)-1-methyl-pyrazol-4-yl]-5-amino-2-(2,6-difluorophenyl)thiazole-4-carboxamide]	–	EC50 ([1]; Homo sapiens, MM1.S, 72 h): 6400 nM
Cn1ncc(NC(=O)c2nc(-c3c(F)cccc3F)sc2N)c1C1CC[C@@H](N)[C@@H](F)CC1 (single isomer, unassigned) [Example 381]	–	EC50 ([1]; Homo sapiens, MM1.S, 72 h): 3500 nM
Cn1ncc(NC(=O)c2nc(-c3ncccc3F)sc2N)c1N1CC[C@@H](N)[C@H](F)CC1 [Example 268, 5-amino-N-(5-((4R,5R)-4-amino-5-fluoroazepan-1-yl)-1-methyl-1H-pyrazol-4-yl)-2-(3-fluoropyridin-2-yl)thiazole-4-carboxamide]	0.186	–
Cn1ncc(NC(=O)c2nc(-c3ccccc3F)ccc2N)c1N1CC[C@@H](N)CC(F)(F)C1 [Example 250, (R)-3-amino-N-(5-(5-amino-3,3-difluoroazepan-1-yl)-1-methyl-1H-pyrazol-4-yl)-6-(2-fluorophenyl)picolinamide]	0.03	–
CC(=O)NC1(C)CCCN(c2c(NC(=O)c3nc(-c4ncccc4F)sc3N)cnn2C)CC1 (centres unmarked) [Example 384, N-[5-(4-acetamido-4-methyl-azepan-1-yl)-1-methyl-pyrazol-4-yl]-5-amino-2-(3-fluoro-2-pyridyl)thiazole-4-carboxamide]	0.613	–
Cc1ncccc1-c1nc(C(=O)Nc2cnn(C)c2N2CC[C@@H](N)[C@H](F)CC2)c(N)s1 [Example 430, 5-amino-N-[5-[(4R,5R)-4-amino-5-fluoro-azepan-1-yl]-1-methyl-pyrazol-4-yl]-2-(2-methyl-3-pyridyl)thiazole-4-carboxamide]	1.17	–
Cn1ncc(NC(=O)c2nc(-c3c(F)cccc3F)sc2N)c1N1CCC(N)C2(CCO2)CC1 (single isomer, unassigned) [Example 497, 5-amino-N-[5-(5-amino-1-oxa-8-azaspiro[3.6]decan-8-yl)-1-methyl-pyrazol-4-yl]-2-(2,6-difluorophenyl)thiazole-4-carboxamide]	0.268	–
Cn1ncc(NC(=O)c2nc(-c3c(F)cccc3F)sc2N)c1N1CC[C@@H]2OC(=O)N[C@]2(C)CC1 [Example 509, 5-amino-2-(2,6-difluorophenyl)-N-(1-methyl-5-((3aR,8aS)-3a-methyl-2-oxotetrahydro-2H-oxazolo[5,4-d]azepin-6(7H,8H,8aH)-yl)-1H-pyrazol-4-yl)thiazole-4-carboxamide]	–	IC50 (BaF3 parental cells; [2]): > 25000 nM
Cc1cc(-c2nc(C(=O)Nc3cnn(C)c3N3CC[C@@H](N)[C@H](F)CC3)c(N)s2)ccn1 [Example 431, 5-amino-N-[5-[(4R,5R)-4-amino-5-fluoro-azepan-1-yl]-1-methyl-pyrazol-4-yl]-2-(2-methyl-4-pyridyl)thiazole-4-carboxamide]	1.04	–
Cc1ccc(F)c(-c2nc(C(=O)Nc3cnn(C)c3N3CC[C@@H](N)[C@@H](F)CC3)c(N)s2)c1 [Example 265, 5-amino-N-(5-((4R,5S)-4-amino-5-fluoroazepan-1-yl)-1-methyl-1H-pyrazol-4-yl)-2-(2-fluoro-5-methylphenyl)thiazole-4-carboxamide]	0.038	–
Cn1ncc(NC(=O)c2nc(-c3c(F)cccc3F)sc2N)c1N1CCC[C@H](N(CC2COC2)CC2COC2)CC1 [Example 343, 5-amino-N-[5-[(4S)-4-[bis(oxetan-3-ylmethyl)amino]azepan-1-yl]-1-methyl-pyrazol-4-yl]-2-(2,6-difluorophenyl)thiazole-4-carboxamide]	0.962	–
COC1CCN(c2c(NC(=O)c3nc(-c4c(F)cccc4F)sc3N)cnn2C2CC2)CCC1N (single isomer, unassigned) [Example 401, 5-amino-N-[5-(4-amino-5-methoxy-azepan-1-yl)-1-cyclopropyl-pyrazol-4-yl]-2-(2,6-difluorophenyl)thiazole-4-carboxamide]	0.059	–
Cc1ccc(F)c(-c2nc(C(=O)Nc3cnn(C4CC4)c3N3CCC(N)C(F)CC3)c(N)s2)c1 (centres unmarked) [Example 330, 5-amino-N-[5-(4-amino-5-fluoro-azepan-1-yl)-1-cyclopropyl-pyrazol-4-yl]-2-(2-fluoro-5-methyl-phenyl)thiazole-4-carboxamide]	0.087	–
Cn1ncc(NC(=O)c2nc(-c3c(F)cccc3F)sc2N)c1N1CCC[C@H](NCC2(C)COC2)CC1 [Example 334, 5-amino-2-(2,6-difluorophenyl)-N-[1-methyl-5-[(4S)-4-[(3-methyloxetan-3-yl)methylamino]azepan-1-yl]pyrazol-4-yl]thiazole-4-carboxamide]	0.295	–
COc1nccc(C)c1-c1nc(C(=O)Nc2cnn(C)c2N2CCC[C@H](N)CC2)c(N)s1 [Example 427, 5-amino-N-[5-[(4S)-4-aminoazepan-1-yl]-1-methyl-pyrazol-4-yl]-2-(2-methoxy-4-methyl-3-pyridyl)thiazole-4-carboxamide]	3.7	–
CCn1ncc(NC(=O)c2nc(-c3c(F)cccc3F)sc2N)c1N1CCC(N)C(OC)CC1 (single isomer, unassigned) [Example 389, 5-amino-N-[5-(4-amino-5-methoxy-azepan-1-yl)-1-ethyl-pyrazol-4-yl]-2-(2,6-difluorophenyl)thiazole-4-carboxamide]	0.624	–
Nc1sc(-c2c(F)cccc2F)nc1C(=O)Nc1cnn(CC(F)(F)F)c1N1CCCCC(N)C1 (centres unmarked) [Example 303, 5-Amino-2-(2,6-difluoro-phenyl)-thiazole-4-carboxylic acid [5-(3-amino-azepan-1-yl)-1-(2,2,2-trifluoro-ethyl)-1H-pyrazol-4-yl]-amide]	0.208	–
Cc1cc(-c2nc(C(=O)Nc3cnn(C)c3N3CC[C@@H](N)[C@H](F)CC3)c(N)s2)cc(C)n1 [Example 443, 5-amino-N-[5-[(4R,5R)-4-amino-5-fluoro-azepan-1-yl]-1-methyl-pyrazol-4-yl]-2-(2,6-dimethyl-4-pyridyl)thiazole-4-carboxamide]	2.54	–
Cn1ncc(NC(=O)c2nc(-c3cc(F)ccc3F)sc2N)c1N1CC[C@@H](N)[C@@H](F)CC1 [Example 271, 5-amino-N-(5-((4R,5S)-4-amino-5-fluoroazepan-1-yl)-1-methyl-1H-pyrazol-4-yl)-2-(2,5-difluorophenyl)thiazole-4-carboxamide]	0.058	–
Cn1ncc(NC(=O)c2nc(-c3c(F)cccc3F)sc2N)c1N1CCCN(C2CNC2)CC1 [Example 362, 5-amino-N-[5-[4-(azetidin-3-yl)-1,4-diazepan-1-yl]-1-methyl-pyrazol-4-yl]-2-(2,6-difluorophenyl)thiazole-4-carboxamide]	0.25	–
Cn1cc(-c2nc(C(=O)Nc3cnn(C)c3N3CCC[C@H](N)CC3)c(N)s2)cn1 [Example 419, 5-amino-N-[5-[(4S)-4-aminoazepan-1-yl]-1-methyl-pyrazol-4-yl]-2-(1-methylpyrazol-4-yl)thiazole-4-carboxamide]	0.785	–
CCn1ncc(NC(=O)c2nc(-c3ccccc3F)sc2N)c1N1CCC(N)C(F)CC1 (single isomer, unassigned) [Example 373, 5-amino-N-[5-(4-amino-5-fluoro-azepan-1-yl)-1-ethyl-pyrazol-4-yl]-2-(2-fluorophenyl)thiazole-4-carboxamide]	0.373	–
Cn1ncc(NC(=O)c2nc(-c3cncc(F)c3)sc2N)c1N1CCC[C@H](N)CC1 [Example 420, 5-amino-N-[5-[(4S)-4-aminoazepan-1-yl]-1-methyl-pyrazol-4-yl]-2-(5-fluoro-3-pyridyl)thiazole-4-carboxamide]	4.25	–
Cc1cnc(C)c(-c2nc(C(=O)Nc3cnn(C)c3N3CC[C@@H](N)[C@H](F)CC3)c(N)s2)c1 [Example 445, 5-amino-N-[5-[(4R,5R)-4-amino-5-fluoro-azepan-1-yl]-1-methyl-pyrazol-4-yl]-2-(2,5-dimethyl-3-pyridyl)thiazole-4-carboxamide]	0.446	–

Source: patent US8614206B2 (Genentech, Inc., priority 2011, dated 2013)
